Earlier results, collected in US8529939B2, “Mucoadhesive drug delivery devices and methods of making and using thereof” (Gel-Del Technologies, Inc., priority 2003, dated 2013).

[1] = contact time 30 s, previous study

Structure (SMILES): OC[C@@H](O)[C@@H](O)[C@H](O)[C@H](O)CO [Mannitol, mannitol]
- tensile stress [1]: 0.017 N/cm^2
- tensile work [1]: 0.015 mJ/cm^2
- bioadhesive properties (in words) (powders, control reference): no bioadhesive properties
